Common to all, as to assay type: in vivo, human
Data set [1] has as its system physiologic FDG uptake in the intestinal tract. Nature of the data set: PET-CT scan study of intestinal FDG uptake after rifaximin pre-treatment (Example 1). The method, then:
(§1) This example relates to a study to determine whether an oral antibiotic, rifaximin, administered prior to PET-CT scan can reduce physiologic FDG uptake in the intestinal tract. Thirty (30) patients scheduled for clinically-indicated PET-CT scans were enrolled to receive rifaximin 550 mg twice daily (BID) for two days prior to their scans. Each patient had their prior scheduled PET-CT used as control; that is, their prior PET-CT scan was evaluated as a pre-treatment baseline for intestinal FDG uptake (paired controls). The PET-CT scans of a randomly-selected cohort of 90 patients also scheduled for clinically-indicated PET-CT during the same time period were also used as controls (independent controls). All images were stripped of identifying data, and SUVMax (maximum-pixel-value standardized uptake value) and SUVAvg (average standardized uptake value) for all scans were measured by a radiologist blinded to treatment/control status and normalized to liver SUV, which was selected as the reference for normal tissue activity. A qualitative score of colonic uptake (0-4) was also assessed. Statistical analysis was performed by comparing mean SUV cecum/liver by paired t-test (pre & post) or unpaired t-test (treated & controls).

Data set [2] shares this test system. The data set can be described thus: PET-CT scan studies of intestinal FDG uptake with other rifaximin regimens (Examples 2-6). The method, then:
Patients scheduled for clinically-indicated PET-CT scan are administered rifaximin 550 mg twice daily (BID) for five days prior to their scans. Each patient has their prior scheduled PET-CT used as control; that is, their prior PET-CT scan is evaluated as a pre-treatment baseline for intestinal FDG uptake (paired controls). The PET-CT scans of a randomly-selected cohort of patients also scheduled for clinically-indicated PET-CT during the same time period are used as independent controls. Cecal SUVMax (maximum-pixel-value standardized uptake value) and SUVAvg (average standardized uptake value) for all scans are measured by a radiologist blinded to treatment/control status and normalized to liver SUV, which is selected as the reference for normal tissue activity. A qualitative score of colonic uptake (0-4) is also assessed. Statistical analysis was performed by comparing mean SUV cecum/liver by paired t-test (pre & post) or unpaired t-test (treated & controls). The effect of rifaximin on a global measure of colonic SUV is also measured. Patients scheduled for clinically-indicated PET-CT scan are administered rifaximin 550 mg twice daily (BID) for seven days prior to their scans. Each patient has their prior scheduled PET-CT used as control; that is, their prior PET-CT scan is evaluated as a pre-treatment baseline for intestinal FDG uptake (paired controls). The PET-CT scans of a randomly-selected cohort of patients also scheduled for clinically-indicated PET-CT during the same time period are used as independent controls. Cecal SUVMax (maximum-pixel-value standardized uptake value) and SUVAvg (average standardized uptake value) for all scans are measured by a radiologist blinded to treatment/control status and normalized to liver SUV, which is selected as the reference for normal tissue activity. A qualitative score of colonic uptake (0-4) is also assessed. Statistical analysis was performed by comparing mean SUV cecum/liver by paired t-test (pre & post) or unpaired t-test (treated & controls). The effect of rifaximin on a global measure of colonic SUV is also measured. Patients scheduled for clinically-indicated PET-CT scan are administered rifaximin 550 mg twice daily (BID) for between 48 hours to five days prior to their scans. Each patient has their prior scheduled PET-CT used as control; that is, their prior PET-CT scan is evaluated as a pre-treatment baseline for intestinal FDG uptake (paired controls). […] Cecal SUVMax (maximum-pixel-value standardized uptake value) and SUVAvg (average standardized uptake value) for all scans are measured by a radiologist blinded to treatment/control status and normalized to liver SUV, which is selected as the reference for normal tissue activity. A qualitative score of colonic uptake (0-4) is also assessed. […] The effect of rifaximin on a global measure of colonic SUV is also measured. […] Each patient has their prior scheduled PET-CT used as control; that is, their prior PET-CT scan is evaluated as a pre-treatment baseline for intestinal FDG uptake (paired controls). […] Cecal SUVMax (maximum-pixel-value standardized uptake value) and SUVAvg (average standardized uptake value) for all scans are measured by a radiologist blinded to treatment/control status and normalized to liver SUV, which is selected as the reference for normal tissue activity. A qualitative score of colonic uptake (0-4) is also assessed. […]

Data set [3] is described as follows: Adverse events in the rifaximin-treated group (Example 1). The note with it: rifaximin 550 mg BID for two days, 30 patients. The protocol: as §1

The structures appear in SMILES notation.

Take `CO[C@H]1/C=C/O[C@@]2(C)Oc3c(C)c(O)c4c(O)c(c5c(nc6cc(C)ccn65)c4c3C2=O)NC(=O)/C(C)=C\C=C\[C@H](C)[C@H](O)[C@@H](C)[C@@H](O)[C@@H](C)[C@H](OC(C)=O)[C@@H]1C` [rifaximin, (2S,16Z,18E,20S,21S,22R, 23R,24R,25S,26S,27S,28E)-5,6,21,23,25 Pentahydroxy-27-methoxy-2,4,11,16,20,22,24,26-octamethyl-2,7-(epoxypentadeca-(1,11,13)trienimino)benzofuro(4,5-e)pyrido(1,2,-a)benzimidazole-1,15(2H)-dione,25-acetate]: in data set [1], the “OR for overall colonic SUV score <1” value came out at 3.8. In addition, the “patients with no major change in cecal SUVmax/liver ratio after rifaximin” value in data set [1] is on record as 14%. In data set [1], the “scans with overall colonic SUV score <1” value amounted to 53%. In addition, the “difference (reduction) in cecal SUVmax / FDG activity in the cecum between pre- and post-rifaximin images” value in data set [1] (550 mg BID for two days, paired pre-rifaximin scans, p=0.002) was 26%. Moreover, the “mean cecal SUVMax in patients whose SUVMax was >2 in their prior scan” value in data set [1] (550 mg, 48 h) amounted to 3.4. Moreover, the “cecal SUVmax levels in patients with high baseline levels” value in data set [1] (after 2 days of rifaximin pre-treatment) is reported as “significantly lower levels”. For the same compound, the “patients with higher cecal SUVmax/liver ratio post-rifaximin” value in data set [1] (patients (n=27) with cecal SUVmax/liver ratio >2 in pre-rifaximin scans, 2/27) stood at 7%. Moreover, in data set [1] (patients (n=27) with cecal SUVmax/liver ratio >2 in pre-rifaximin scans, 21/27, p=0.0005), the “patients with lower cecal SUVmax/liver ratio after rifaximin” value worked out at 78%. Besides, the “patients with down-grading of FDG signal intensity (overall colonic SUV signal)” value in data set [1] (patients with an initial high cecal SUVMax, FIG. 4) stood at 80%. The “Normalized (mean) cecal SUVAvg” value in data set [1] (post-rifaximin scan, 550 mg BID two days, 2.0 without rifaximin, p=0.02 paired t-test) was 1.6. Further, the “Mean colon SUVmax” value in data set [1] (post-rifaximin scan, 550 mg BID two days, pre-rifaximin 4.0, p=0.7) is reported as 3.8. Besides, in data set [1] (post-rifaximin scans, score 0-4 by blinded reader, FIG. 4), the “distribution of overall colonic SUV grades” value is “left-shift in the distribution of colonic SUV grades from higher to lower grades”. For the same compound, the “mean cecal SUVMax, rifaximin-treated patients vs random control scans” value in data set [1] (random control scans mean 4.2, no significant difference, p=0.2 unpaired t-test) came to 3.4. The “FDG uptake compared to pre-rifaximin scan” value is “significant reduction” in data set [1] (rifaximin for 2 days prior to PET-CT scans); “significant reduction” in data set [2] (Example 2: 550 mg BID for five days prior to PET-CT scans); “significant reduction” in data set [2] (Example 3: 550 mg BID for seven days prior to PET-CT scans); “significant reduction” in data set [2] (Example 4: 550 mg BID for between 48 hours to 5 days prior to PET-CT scans); “significant reduction” in data set [2] (Example 5: 1100 mg per day for 48 hours to seven days prior to PET-CT scans); “significant reduction” in data set [2] (Example 6: solid dispersion with about 10 mg to about 100 mg rifaximin, once per day up to TID, 48 hours to seven days prior to PET-CT scans). Besides, in data set [1] (rifaximin pre-treated group, reduced from 2.3, p=0.07), the “qualitative score of whole colonic uptake (0-4), mean” value is recorded as 1.8. Moreover, the “overall percentage of patients with grade of colonic FDG intensity >1” value in data set [1] (with rifaximin compared to without rifaximin, FIG. 4) is listed as “lower”. For the same compound, in data set [3], the adverse events entry is “No adverse events were reported”.
